The record followed here is patent US10947271B2, “Antibacterial agents” (THE UNIVERSITY OF QUEENSLAND, priority 2014, dated 2021).

Assay type in all cases: cell-based
Conditions in all cases: 24 h incubation, visual reading

For assay [1], the system named is Staphylococcus aureus MRSA ATCC 43300. Briefly: MIC assay, S. aureus MRSA ATCC 43300. The method, boiled down:
(§1)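 Twofold broth microdilution in Mueller Hinton broth; compounds tested from 8 μg/ml to 0.003 μg/ml. Mid-log cultures were inoculated at 5×10e5 CFU/mL and incubated 24 h at 37° C. MIC was the lowest concentration with no visible growth.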

Assay [2] concerns Streptococcus pneumoniae MDR ATCC 700677. Description: MIC assay, S. pneumoniae MDR ATCC 700677. The method, boiled down: as §1
Assay [3] concerns Enterococcus faecium MDR Van A ATCC 51559. Description: MIC assay, E. faecium MDR Van A ATCC 51559. The method, boiled down: as §1

As to `CCCCCCC[C@H](O)CC(=O)N[C@@H](CCCCN)C(=O)N[C@@H](CCCCN)C(=O)N[C@@H](CCCCNC(=O)[C@H]1NC(=O)[C@H]2NC(=O)[C@H](NC(=O)[C@@H]3NC(=O)[C@H](CC(N)=O)NC(=O)[C@H](NC(=O)[C@@H](CC(C)C)NC)[C@H](O)c4ccc(c(Cl)c4)Oc4cc3cc(c4O[C@@H]3O[C@H](CO)[C@@H](O)[C@H](O)[C@H]3O[C@H]3C[C@](C)(N)[C@H](O)[C@H](C)O3)Oc3ccc(cc3Cl)[C@H]2O)c2ccc(O)c(c2)-c2c(O)cc(O)cc21)C(=O)O` [MCC_005506], in assay [1], the “Minimum Inhibitory Concentration (MIC) Staph. aureus ATCC43300” value is on record as “xxx (xxx = 0.1-<1)”. For the same molecule, the “Minimum Inhibitory Concentration (MIC) S. pneumoniae ATCC 700677” value in assay [2] is listed as “xxx (xxx = 0.1-<1)”. Further, the “Minimum Inhibitory Concentration (MIC) E. faecium ATCC51559” value in assay [3] is recorded as “x (x = >4)”.

As to `CCCCCCCCCC(=O)N[C@@H](CCCNC(=N)N)C(=O)N[C@@H](CCCNC(=N)N)C(=O)N[C@@H](CCCCNC(=O)[C@H]1NC(=O)[C@H]2NC(=O)[C@H](NC(=O)[C@@H]3NC(=O)[C@H](CC(N)=O)NC(=O)[C@H](NC(=O)[C@@H](CC(C)C)NC)[C@H](O)c4ccc(c(Cl)c4)Oc4cc3cc(c4O[C@@H]3O[C@H](CO)[C@@H](O)[C@H](O)[C@H]3O[C@H]3C[C@](C)(N)[C@H](O)[C@H](C)O3)Oc3ccc(cc3Cl)[C@H]2O)c2ccc(O)c(c2)-c2c(O)cc(O)cc21)C(=O)O` [MCC_005507], the “Minimum Inhibitory Concentration (MIC) Staph. aureus ATCC43300” value in assay [1] is recorded as “xxxx (xxxx = 0.01-<0.1)”. The “Minimum Inhibitory Concentration (MIC) S. pneumoniae ATCC 700677” value in assay [2] is reported as “xxxx (xxxx = 0.01-<0.1)”. Besides, the “Minimum Inhibitory Concentration (MIC) E. faecium ATCC51559” value in assay [3] is reported as “x (x = >4)”.

With `CN[C@H](CC(C)C)C(=O)N[C@H]1C(=O)N[C@@H](CC(N)=O)C(=O)N[C@H]2C(=O)N[C@H]3C(=O)N[C@H](C(=O)N[C@H](C(=O)NCCCC[C@H](NC(=O)[C@H](CCCCN(C)C)NC(=O)c4ccc(Cl)cc4)C(=O)O)c4cc(O)cc(O)c4-c4cc3ccc4O)[C@H](O)c3ccc(c(Cl)c3)Oc3cc2cc(c3O[C@@H]2O[C@H](CO)[C@@H](O)[C@H](O)[C@H]2O[C@H]2C[C@](C)(N)[C@H](O)[C@H](C)O2)Oc2ccc(cc2Cl)[C@H]1O` [MCC_007219], in assay [1], the “Minimum Inhibitory Concentration (MIC) Staph. aureus ATCC43300” value was “xx (xx = 1-4)”. The “Minimum Inhibitory Concentration (MIC) S. pneumoniae ATCC 700677” value in assay [2] is “x (x = >4)”. Besides, the “Minimum Inhibitory Concentration (MIC) E. faecium ATCC51559” value in assay [3] is “x (x = >4)”.

On to `CCCCCCCCCC(=O)N[C@@H](CCCCN1CCCCC1)C(=O)N[C@@H](CCCCNC(=O)[C@H]1NC(=O)[C@H]2NC(=O)[C@H](NC(=O)[C@@H]3NC(=O)[C@H](CC(N)=O)NC(=O)[C@H](NC(=O)[C@@H](CC(C)C)NC)[C@H](O)c4ccc(c(Cl)c4)Oc4cc3cc(c4O[C@@H]3O[C@H](CO)[C@@H](O)[C@H](O)[C@H]3O[C@H]3C[C@](C)(N)[C@H](O)[C@H](C)O3)Oc3ccc(cc3Cl)[C@H]2O)c2ccc(O)c(c2)-c2c(O)cc(O)cc21)C(=O)O` [MCC_007328], for which, in assay [1], the “Minimum Inhibitory Concentration (MIC) Staph. aureus ATCC43300” value was “xxx (xxx = 0.1-<1)”. In assay [2], the “Minimum Inhibitory Concentration (MIC) S. pneumoniae ATCC 700677” value is “xxx (xxx = 0.1-<1)”. For the same molecule, in assay [3], the “Minimum Inhibitory Concentration (MIC) E. faecium ATCC51559” value is listed as “x (x = >4)”.

For `CCCCCCCCCC(=O)N[C@@H](CCCCN(CC)CC)C(=O)N[C@@H](CCCCNC(=O)[C@H]1NC(=O)[C@H]2NC(=O)[C@H](NC(=O)[C@@H]3NC(=O)[C@H](CC(N)=O)NC(=O)[C@H](NC(=O)[C@@H](CC(C)C)NC)[C@H](O)c4ccc(c(Cl)c4)Oc4cc3cc(c4O[C@@H]3O[C@H](CO)[C@@H](O)[C@H](O)[C@H]3O[C@H]3C[C@](C)(N)[C@H](O)[C@H](C)O3)Oc3ccc(cc3Cl)[C@H]2O)c2ccc(O)c(c2)-c2c(O)cc(O)cc21)C(=O)O` [MCC_007330], the “Minimum Inhibitory Concentration (MIC) Staph. aureus ATCC43300” value in assay [1] was “xxx (xxx = 0.1-<1)”. For the same molecule, the “Minimum Inhibitory Concentration (MIC) S. pneumoniae ATCC 700677” value in assay [2] is “xxx (xxx = 0.1-<1)”. The “Minimum Inhibitory Concentration (MIC) E. faecium ATCC51559” value in assay [3] is “x (x = >4)”.

Consider `CCCCCCCCCCC(=O)NC(CCCNC(=N)N)C(=O)NCCCNC(=O)C1NC(=O)C2NC(=O)C(NC(=O)C3NC(=O)C(CC(N)=O)NC(=O)C(NC(=O)C(CC(C)C)NC)C(O)c4ccc(c(Cl)c4)Oc4cc3cc(c4OC3OC(CO)C(O)C(O)C3OC3CC(C)(N)C(O)C(C)O3)Oc3ccc(cc3Cl)C2O)c2ccc(O)c(c2)-c2c(O)cc(O)cc21` (stereo not drawn) [MCC_007337], for which the “Minimum Inhibitory Concentration (MIC) Staph. aureus ATCC43300” value in assay [1] is reported as “xxxxx (xxxxx = <0.01)”. For the same molecule, in assay [2], the “Minimum Inhibitory Concentration (MIC) S. pneumoniae ATCC 700677” value was “xxxxx (xxxxx = <0.01)”. In assay [3], the “Minimum Inhibitory Concentration (MIC) E. faecium ATCC51559” value is given as “xx (xx = 1-4)”.

In the case of `CCCCCCCCCC(=O)NC(CCCCN(C)C)C(=O)NCCCNC(=O)C1NC(=O)C2NC(=O)C(NC(=O)C3NC(=O)C(CC(N)=O)NC(=O)C(NC(=O)C(CC(C)C)NC)C(O)c4ccc(c(Cl)c4)Oc4cc3cc(c4OC3OC(CO)C(O)C(O)C3OC3CC(C)(N)C(O)C(C)O3)Oc3ccc(cc3Cl)C2O)c2ccc(O)c(c2)-c2c(O)cc(O)cc21` (stereo not drawn) [MCC_007339], the “Minimum Inhibitory Concentration (MIC) Staph. aureus ATCC43300” value in assay [1] was “xxxx (xxxx = 0.01-<0.1)”. Besides, the “Minimum Inhibitory Concentration (MIC) S. pneumoniae ATCC 700677” value in assay [2] was “xxxx (xxxx = 0.01-<0.1)”. Also, the “Minimum Inhibitory Concentration (MIC) E. faecium ATCC51559” value in assay [3] is given as “xx (xx = 1-4)”.

Consider `CCCCCCCCCCC(=O)NC(CCCCN(C)C)C(=O)NCCCNC(=O)C1NC(=O)C2NC(=O)C(NC(=O)C3NC(=O)C(CC(N)=O)NC(=O)C(NC(=O)C(CC(C)C)NC)C(O)c4ccc(c(Cl)c4)Oc4cc3cc(c4OC3OC(CO)C(O)C(O)C3OC3CC(C)(N)C(O)C(C)O3)Oc3ccc(cc3Cl)C2O)c2ccc(O)c(c2)-c2c(O)cc(O)cc21` (stereo not drawn) [MCC_007340], for which the “Minimum Inhibitory Concentration (MIC) Staph. aureus ATCC43300” value in assay [1] is “xxxxx (xxxxx = <0.01)”. Besides, the “Minimum Inhibitory Concentration (MIC) S. pneumoniae ATCC 700677” value in assay [2] was “xxxx (xxxx = 0.01-<0.1)”. Moreover, the “Minimum Inhibitory Concentration (MIC) E. faecium ATCC51559” value in assay [3] is given as “xx (xx = 1-4)”.

As for `CCCCCCCCCC(=O)N[C@@H](CCCCN1CCOCC1)C(=O)N[C@@H](CCCCNC(=O)[C@H]1NC(=O)[C@H]2NC(=O)[C@H](NC(=O)[C@@H]3NC(=O)[C@H](CC(N)=O)NC(=O)[C@H](NC(=O)[C@@H](CC(C)C)NC)[C@H](O)c4ccc(c(Cl)c4)Oc4cc3cc(c4O[C@@H]3O[C@H](CO)[C@@H](O)[C@H](O)[C@H]3O[C@H]3C[C@](C)(N)[C@H](O)[C@H](C)O3)Oc3ccc(cc3Cl)[C@H]2O)c2ccc(O)c(c2)-c2c(O)cc(O)cc21)C(=O)O` [MCC_007379], the “Minimum Inhibitory Concentration (MIC) Staph. aureus ATCC43300” value in assay [1] is listed as “xx (xx = 1-4)”. In addition, the “Minimum Inhibitory Concentration (MIC) S. pneumoniae ATCC 700677” value in assay [2] is “xx (xx = 1-4)”. The “Minimum Inhibitory Concentration (MIC) E. faecium ATCC51559” value in assay [3] is reported as “x (x = >4)”.

With `CCCCCCCCC(=O)N[C@@H](CCCNC(=N)N)C(=O)N[C@@H](CCCCNC(=O)[C@H]1NC(=O)[C@H]2NC(=O)[C@H](NC(=O)[C@@H]3NC(=O)[C@H](CC(N)=O)NC(=O)[C@H](NC(=O)[C@@H](CC(C)C)NC)[C@H](O)c4ccc(c(Cl)c4)Oc4cc3cc(c4O[C@@H]3O[C@H](CO)[C@@H](O)[C@H](O)[C@H]3O[C@H]3C[C@](C)(N)[C@H](O)[C@H](C)O3)Oc3ccc(cc3Cl)[C@H]2O)c2ccc(O)c(c2)-c2c(O)cc(O)cc21)C(=O)O` [MCC_007385], the “Minimum Inhibitory Concentration (MIC) Staph. aureus ATCC43300” value in assay [1] is “xxx (xxx = 0.1-<1)”. In addition, the “Minimum Inhibitory Concentration (MIC) S. pneumoniae ATCC 700677” value in assay [2] is given as “xxx (xxx = 0.1-<1)”. Moreover, in assay [3], the “Minimum Inhibitory Concentration (MIC) E. faecium ATCC51559” value is recorded as “x (x = >4)”.

`CCCCCCCCC(=O)N[C@@H](CCCCN(C)C)C(=O)N[C@@H](CCCCNC(=O)[C@H]1NC(=O)[C@H]2NC(=O)[C@H](NC(=O)[C@@H]3NC(=O)[C@H](CC(N)=O)NC(=O)[C@H](NC(=O)[C@@H](CC(C)C)NC)[C@H](O)c4ccc(c(Cl)c4)Oc4cc3cc(c4O[C@@H]3O[C@H](CO)[C@@H](O)[C@H](O)[C@H]3O[C@H]3C[C@](C)(N)[C@H](O)[C@H](C)O3)Oc3ccc(cc3Cl)[C@H]2O)c2ccc(O)c(c2)-c2c(O)cc(O)cc21)C(=O)O` [MCC_007386]: the “Minimum Inhibitory Concentration (MIC) Staph. aureus ATCC43300” value in assay [1] is “xx (xx = 1-4)”. The “Minimum Inhibitory Concentration (MIC) S. pneumoniae ATCC 700677” value in assay [2] is reported as “xx (xx = 1-4)”. Further, the “Minimum Inhibitory Concentration (MIC) E. faecium ATCC51559” value in assay [3] is recorded as “x (x = >4)”.

Turning to `CCCCCCCCC(=O)NC(CCCC[N+](C)(C)C)C(=O)NCCCNC(=O)C1NC(=O)C2NC(=O)C(NC(=O)C3NC(=O)C(CC(N)=O)NC(=O)C(NC(=O)C(CC(C)C)NC)C(O)c4ccc(c(Cl)c4)Oc4cc3cc(c4OC3OC(CO)C(O)C(O)C3OC3CC(C)(N)C(O)C(C)O3)Oc3ccc(cc3Cl)C2O)c2ccc(O)c(c2)-c2c(O)cc(O)cc21` (stereo not drawn) [MCC_007388], the “Minimum Inhibitory Concentration (MIC) Staph. aureus ATCC43300” value in assay [1] was “xxx (xxx = 0.1-<1)”. In addition, the “Minimum Inhibitory Concentration (MIC) S. pneumoniae ATCC 700677” value in assay [2] was “xx (xx = 1-4)”. The “Minimum Inhibitory Concentration (MIC) E. faecium ATCC51559” value in assay [3] is on record as “x (x = >4)”.

Take `CNC(CC(C)C)C(=O)NC1C(=O)NC(CC(N)=O)C(=O)NC2C(=O)NC3C(=O)NC(C(=O)NC(C(=O)NCCCNC(=O)C(CCCCN)NC(=O)c4ccc(C(F)(F)F)cc4)c4cc(O)cc(O)c4-c4cc3ccc4O)C(O)c3ccc(c(Cl)c3)Oc3cc2cc(c3OC2OC(CO)C(O)C(O)C2OC2CC(C)(N)C(O)C(C)O2)Oc2ccc(cc2Cl)C1O` (stereo not drawn) [MCC_007408]: the “Minimum Inhibitory Concentration (MIC) Staph. aureus ATCC43300” value in assay [1] is “xxxx (xxxx = 0.01-<0.1)”. In addition, the “Minimum Inhibitory Concentration (MIC) S. pneumoniae ATCC 700677” value in assay [2] is on record as “xxx (xxx = 0.1-<1)”. For the same molecule, in assay [3], the “Minimum Inhibitory Concentration (MIC) E. faecium ATCC51559” value was “x (x = >4)”.
